The record followed here is PMC10308680 (Journal of Biomedical Science, 2023).

Values joined by “and” are separate entries in the source; they are usually repeats but may differ in a detail not shown here. Identical values can stand only once.

In test [1] the test system is CD28/B7-2 (cell-surface B7-2). Type of test: cell-based, human.
The next test concerns B7-2/CD28. Type of test: cell-based, human.

As for ASMDYPVL [p2TAsc], the “inhibition of binding of soluble CD28 to cell-surface B7-2” value in test [1] is given as “abrogated the ability of p2TA to inhibit binding of CD28 to cell-surface B7-2”. Besides, in the test with B7-2/CD28, the “Per cent doubly labeled cells (B7-2/CD28)” value is 8.4% and 9.0% and 8.6%; the “attenuation of intercellular B7-2/CD28 engagement (in words)” value is given as “fails to attenuate intercellular B7-2/CD28 engagement”.
